Assay results published in paper PMC10221320.
Positions of bridges follow the written chain, without caps; N, C: chain ends. No end group written: not given here.

Tests used:
rat ASIC3 (rASIC3) [1] = details: ref [41]; read-out: EC50, potentiation of rASIC3 current; cited from earlier work
CD-1 mice [2] = assay: Acetic-acid-induced writhings (acid-induced muscle pain model); format: in vivo, mouse
Procedure: (§1) The animal studies were performed under the European Commission’s legislation (Directives 86/609/EEC, 2010/63/EU), the National Standard of the Russian Federation “Good Laboratory Practice” (GOST P 53434-2009, Moscow, Russia), and Committee on Ethics of Laboratory Animal Handling № 05/21, 20 September 2021 and 08/21, 30 December 2021 protocols (PIBOC FEB RAS). Adult female CD-1 mice weighing 25 ± 2 g were subjected to a 12 h light–dark cycle at room temperature and with ad libitum access to food and water. There were seven or eight individuals in each group.
Three groups of animals were treated with peptides at doses of 0.01, 0.1 and 1 mg/kg (intravenously) 15 min before an injection of 300 μL of a 0.7% acetic acid solution. The control animal group received an identical volume of saline. The positive control group received intravenously a dose 1 mg/kg of diclofenac (Hemofarm A.D., Vršac, Serbia), a commercial drug of the NSAID group. Fifteen minutes immediately after acid administration, the number of writhings and the writhing time (time in a spasmodic state) were counted.

CD-1 mice [3] = assay: Elevated plus maze test; format: in vivo, mouse; details: for N (h-d), number of hanging-down reactions / N (racks), vertical activity / N (sap), number of stretch-attend postures / N. entries, closed arms / N. entries, open arms / S (act), distance traveled during activity / S, distance traveled / T (act), activity time / T (e.c.z.), time of exit from the central zone / T (pass), passivity time / V, average travel speed / V(act), average movement speed during activity / N. entries, central area / T., time spent in closed arms / T., time spent in central area / T., time spent in open arms: mean ± SD
Procedure: as §1
The anti-anxiety activity of the peptides was studied using the elevated plus maze (OpenScience, Krasnogorsk, Russia) test, a cruciform arena raised 50 cm above the floor, where the central platform and two arms are open and lightened, and two arms are closed with walls. Three groups of animals were treated with peptides at doses of 0.01, 0.1 and 1 mg/kg (intravenously) 30 min before testing. The control group was injected with an identical volume (50 µL) of sterile saline. Animals were placed in the center of the lightened arena and the recording lasted 5 min. Using the software “Minotaur” (LLC “Neurobiotics”, Zelenograd, Russia), 12 parameters were estimated: time (T) of activity(act); passivity (pass); spent in closed, open arms, and on the central area; exit from the central zone (e.c.z.); average travel speed (V, m/s); average movement speed during activity (V(act)); distance traveled (S, m); distance traveled during activity (S (act)); a number (N) of entries into open, closed arms, and exits to the central area (entries); vertical activity (racks); and stretch–attend posture when the animal stretches to its full length mainly using the forepaws (sap).

CD-1 mice [4] = assay: Carrageenan-induced paw edema; format: in vivo, mouse
Procedure: as §1
Three groups of animals were treated with peptides at doses of 0.01, 0.1 and 1 mg/kg (intravenously) 30 min before the induction of inflammation. The control animal group received an identical volume of saline. The positive control group received diclofenac (Hemofarm A.D., Vršac, Serbia) at a dose of 1 mg/kg. The edema was induced by a 20 µL injection of 1.5% solution of λ-carrageenan (Sigma Aldrich, St. Louis, MO, USA) in the hind paw pad. The resulting edema was measured after 1, 2, 4 and 24 h using a plethysmometer (Ugo Basile, Gemonio (VA), Italy). The anti-inflammatory threshold was estimated as a decrease in the paw volume and volume growth index (%), calculated using the formula: Volume Growth Index (%) = [(VC − Vi)/Vi] × 100, (1), where VC is the volume of the paw after the introduction of carrageenan and Vi is the volume of the paw before the introduction of carrageenan.

[5] = intraperitoneal administration; ref [40]; cited from earlier work
rat ASIC1a (rASIC1a) = tested on: rat ASIC1a (rASIC1a); design: method as in PMID 29684594, PMID 32326130; details: ref [40],[41]; read-out: IC50, inhibition of rASIC1a; cited from earlier work
rat ASIC3 (rASIC3) [6] = assay: Two-electrode voltage clamp, rASIC3 in Xenopus laevis oocytes; format: cell-based; details: 1 μM; pH drop from 7.4 to 5.5; −50 mV; n = 5; recombinant peptide
[7] = i.v. 15 min before 0.7% acetic acid
[8] = 0.01 mg/kg i.v. 30 min before testing, n = 7–8
[9] = 0.1 mg/kg i.v. 30 min before testing, n = 7–8
[10] = 1 mg/kg i.v. 30 min before testing, n = 7–8

In the case of “GTPCDCYGYTGVYWFMLSRCPSGYGYNLSCHYFMGICCVKR (disulfide 4-37, 6-30, 20-38 (inferred)) [Hmg 1b-4]”, the EC50 (rat ASIC3 (rASIC3) [1]) is listed as 1530 ± 70 nM, the “difference in analgesic activity between the two peptides” value (CD-1 mice [2]; i.v.) is listed as “no significant difference in analgesic activity between each other” and the “reduction in duration of writhings vs control” value (CD-1 mice [2]; [7]) is listed as “more than 2.5 times”. For the same sequence, the “reduction in number of writhings vs control” value (CD-1 mice [2]; [7]) was 1.5 times, the “N (h-d), number of hanging-down reactions” value (“N (h-d), number” for short) (CD-1 mice [3]; [8]) was 19 ± 6.6 and the “N (racks), vertical activity” value (CD-1 mice [3]; [8]) was 34 ± 14.3. The “N (sap), number of stretch-attend postures” value (“N (sap), number” below) (CD-1 mice [3]; [8]) was 15 ± 2.3, the “N. entries, closed arms” value (CD-1 mice [3]; [8]) was 18 ± 4.8 and the “N. entries, open arms” value (CD-1 mice [3]; [8]) was 15 ± 3.3. For the same sequence, the “S (act), distance traveled during activity” value (“S (act)” for short) (CD-1 mice [3]; [8]) was 42.6 ± 8.0 m, the “S, distance traveled” value (CD-1 mice [3]; [8]) was 44.3 ± 8.3 m and the “T (act), activity time” value (CD-1 mice [3]; [8]) was 161.7 ± 10.6 s. The “T (e.c.z.), time of exit from the central zone” value (from here on “T (e.c.z.), time of exit”) (CD-1 mice [3]; [8]) was 3 ± 1.5 s, the “T (pass), passivity time” value (CD-1 mice [3]; [8]) was 137.7 ± 11.2 s and the “V, average travel speed” value (CD-1 mice [3]; [8]) was 0.15 ± 0.03 m/s. For the same sequence, the “V(act), average movement speed during activity” value (CD-1 mice [3]; 0.01 mg/kg i.v. 30 min before testing, n = 7–8 (SD on later line: Hmg 1b-2 0.02, Hmg 1b-4 0.02)) was 0.26 m/s, the “N. entries, central area” value (CD-1 mice [3]; 0.01 mg/kg i.v. 30 min before testing, n = 7–8 (SD on later line: Hmg 1b-2 11.3)) was 36±9.4 and the “T., time spent in closed arms” value (CD-1 mice [3]; 0.01 mg/kg i.v. 30 min before testing, n = 7–8 (SD on later line: Hmg 1b-2 35.7, Hmg 1b-4 18.7)) was 180.1 s. The “N (h-d), number” value (CD-1 mice [3]; [9]) was 20 ± 8.3, the “N (racks), vertical activity” value (CD-1 mice [3]; [9]) was 41 ± 4.8 and the “N (sap), number” value (CD-1 mice [3]; [9]) was 17 ± 3.6. For the same sequence, the “N. entries, central area” value (CD-1 mice [3]; [9]) was 38 ± 8.4, the “N. entries, closed arms” value (CD-1 mice [3]; [9]) was 20 ± 6.6 and the “N. entries, open arms” value (CD-1 mice [3]; [9]) was 22 ± 3.5. For the same sequence, the “S (act)” value (CD-1 mice [3]; [9]) was 45.1 ± 6.1 m, the “S, distance traveled” value (CD-1 mice [3]; [9]) was 46.8 ± 6.1 m and the “T (act), activity time” value (CD-1 mice [3]; [9]) was 170.8 ± 16.1 s. The “T (e.c.z.), time of exit” value (CD-1 mice [3]; [9]) was 8 ± 3.6 s, the “T., time spent in central area” value (CD-1 mice [3]; [9]) was 78.7 ± 15.3 s and the “T., time spent in closed arms” value (CD-1 mice [3]; [9]) was 169 ± 30.2 s. For the same sequence, the “T., time spent in open arms” value (CD-1 mice [3]; [9]) was 84.3 ± 28.7 s, the “V, average travel speed” value (CD-1 mice [3]; [9]) was 0.14 ± 0.02 m/s and the “V(act), average movement speed during activity” value (CD-1 mice [3]; 0.1 mg/kg i.v. 30 min before testing, n = 7–8 (SD on later line: Hmg 1b-2 0.01, Hmg 1b-4 0.03)) was 0.27 m/s. For the same sequence, the “T (pass), passivity time” value (CD-1 mice [3]; 0.1 mg/kg i.v. 30 min before testing, n = 7–8 (SD on later line: Hmg 1b-2 19.8)) was 128 ± 15.7 s, the “N (h-d), number” value (CD-1 mice [3]; [10]) was 18 ± 5.2 and the “N (racks), vertical activity” value (CD-1 mice [3]; [10]) was 45 ± 8.4. For the same sequence, the “N (sap), number” value (CD-1 mice [3]; [10]) was 14 ± 1.8, the “N. entries, central area” value (CD-1 mice [3]; [10]) was 29 ± 3.4 and the “N. entries, closed arms” value (CD-1 mice [3]; [10]) was 19 ± 3.3. The “N. entries, open arms” value (CD-1 mice [3]; [10]) was 20 ± 2.5, the “S (act)” value (CD-1 mice [3]; [10]) was 41.0 ± 7.5 m and the “S, distance traveled” value (CD-1 mice [3]; [10]) was 43.1 ± 7.1 m. The “T (act), activity time” value (CD-1 mice [3]; [10]) was 174 ± 17.9 s, the “T (e.c.z.), time of exit” value (CD-1 mice [3]; [10]) was 8 ± 6.5 s and the “T., time spent in central area” value (CD-1 mice [3]; [10]) was 73.8 ± 14.6 s. The “T., time spent in open arms” value (CD-1 mice [3]; [10]) was 89.6 ± 18.5 s, the “V, average travel speed” value (CD-1 mice [3]; [10]) was 0.14 ± 0.03 m/s and the “V(act), average movement speed during activity” value (CD-1 mice [3]; 1 mg/kg i.v. 30 min before testing, n = 7–8 (SD on later line: Hmg 1b-2 0.02, Hmg 1b-4 0.04)) was 0.25 m/s. For the same sequence, the “T (pass), passivity time” value (CD-1 mice [3]; 1 mg/kg i.v. 30 min before testing, n = 7–8 (SD on later line: Hmg 1b-2 21.9, Hmg 1b-4 17.7)) was 125.7 s, the “T., time spent in closed arms” value (CD-1 mice [3]; 1 mg/kg i.v. 30 min before testing, n = 7–8 (SD on later line: Hmg 1b-2 32.7, Hmg 1b-4 17.2)) was 160.2 s and the “activity and immobility time, travelled distance and mean speed” value (CD-1 mice [3]; i.v.) was “approximately the same in all groups”. For the same sequence, the anxiolytic effect (CD-1 mice [3]; i.v.) was “exhibit an anxiolytic effect”, the “number of hangings from open sleeves” value (CD-1 mice [3]; i.v.) was “increase in the number of hangings from open sleeves” and the rears number (CD-1 mice [3]; i.v.) was “increase”. The “close area (closed arms) preference, share of time” value (CD-1 mice [3]; i.v., control group 63%) was 50%, the “reduction of volume of paw edema vs control” value (CD-1 mice [4]; 0.01 mg/kg i.v., only after 24 h) was 1.5 times and the “paw volume relative to original values” (CD-1 mice [4]; 0.1 mg/kg i.v., 24 h) was “reduced the volume of the paw almost to the original values”. The “reduction of paw edema” value (CD-1 mice [4]; 0.1 mg/kg i.v., after 24 h) was roughly 4 times, the “reduction of paw edema” value (CD-1 mice [4]; 1 mg/kg i.v., after 24 h) was “approximately 2 times” and the anti-inflammatory effect (CD-1 mice [4]; 0.1 and 1 mg/kg i.v., after 2, 4 and 24 h) was “statistically significant anti-inflammatory effect”. The “effect compared with diclofenac” value (CD-1 mice [4]; 1 and 0.1 mg/kg i.v. at 24 h) was “exceeded the effect of diclofenac”, the “reduction of paw edema” value (CD-1 mice [4]; 1 and 0.1 mg/kg i.v., after 4 h) was 1.5 times and the “paw volume and growth index of edema” value (CD-1 mice [4]; i.v., at 1 and 2 h) was “decreased slightly”. The maximal nontoxic dose [5] was 10 mg/kg, the IC50 (rat ASIC1a (rASIC1a)) was 1250 nM and the “potentiation of rASIC3 currents” value (rat ASIC3 (rASIC3) [6]) was 29%.
